According to PubChem BioAssay (NCI):
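Growth conditions: 96-well plates. Treatment: test compound, 48 hours, 5 concentrations. Analysis: linear interpolation between bracketing concentrations; unreached endpoints set to highest concentration. Abbreviation: GI50, concentration required for 50% inhibition of growth. At the TGI there is no net growth.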

What was measured:
Test in all cases: NCI-60 cell line screen, 48 h
M14 melanoma = test system: M14 melanoma
LOX IMVI melanoma = test system: LOX IMVI melanoma
U251 CNS = test system: U251 CNS
CCRF-CEM leukemia = test system: CCRF-CEM leukemia
UACC-62 melanoma = test system: UACC-62 melanoma
BT-549 breast = test system: BT-549 breast
SR leukemia = test system: SR leukemia
TK-10 renal = test system: TK-10 renal
MOLT-4 leukemia = test system: MOLT-4 leukemia
OVCAR-3 ovarian = test system: OVCAR-3 ovarian
OVCAR-4 ovarian = test system: OVCAR-4 ovarian
SK-MEL-5 melanoma = test system: SK-MEL-5 melanoma
SNB-75 CNS = test system: SNB-75 CNS
SK-MEL-28 melanoma = test system: SK-MEL-28 melanoma
SK-MEL-2 melanoma = test system: SK-MEL-2 melanoma
RXF 393 renal = test system: RXF 393 renal
HCT-15 colon = test system: HCT-15 colon
MDA-MB-231 breast = test system: MDA-MB-231 breast
MALME-3M melanoma = test system: MALME-3M melanoma
SK-OV-3 ovarian = test system: SK-OV-3 ovarian
SW-620 colon = test system: SW-620 colon
HL-60(TB) leukemia = test system: HL-60(TB) leukemia
UO-31 renal = test system: UO-31 renal
MDA-MB-435 = test system: MDA-MB-435
SNB-19 CNS = test system: SNB-19 CNS
HOP-62 NSCLC = test system: HOP-62 NSCLC
HOP-92 NSCLC = test system: HOP-92 NSCLC
MCF7 breast = test system: MCF7 breast
HS 578T breast = test system: HS 578T breast
NCI/ADR-RES ovarian = test system: NCI/ADR-RES ovarian
OVCAR-5 ovarian = test system: OVCAR-5 ovarian
HCC-2998 colon = test system: HCC-2998 colon
A498 renal = test system: A498 renal
SF-539 CNS = test system: SF-539 CNS
NCI-H23 lung = test system: NCI-H23 lung
SF-295 CNS = test system: SF-295 CNS
IGROV1 ovarian = test system: IGROV1 ovarian
A549 NSCLC = test system: A549 NSCLC
RPMI-8226 leukemia = test system: RPMI-8226 leukemia
ACHN renal = test system: ACHN renal
PC-3 prostate = test system: PC-3 prostate
K-562 leukemia = test system: K-562 leukemia
NCI-H522 lung = test system: NCI-H522 lung
UACC-257 melanoma = test system: UACC-257 melanoma
HCT-116 colon = test system: HCT-116 colon
KM12 colon = test system: KM12 colon
SF-268 CNS = test system: SF-268 CNS
NCI-H460 lung = test system: NCI-H460 lung
DU-145 prostate = test system: DU-145 prostate
OVCAR-8 ovarian = test system: OVCAR-8 ovarian
SN12C renal = test system: SN12C renal
T-47D breast = test system: T-47D breast
NCI-H226 lung = test system: NCI-H226 lung
COLO 205 colon = test system: COLO 205 colon
786-0 renal = test system: 786-0 renal
HT29 colon = test system: HT29 colon

## COc1ccc(-c2cnc3ccnn3c2-c2cc(OC)c(OC)c(OC)c2)cc1
M14 melanoma
  GI50: 2.65 µM
  TGI: 35.5 µM
LOX IMVI melanoma
  GI50: 5.96 µM
  TGI: > 100 µM
U251 CNS
  GI50: 4.64 µM
  TGI: > 100 µM
CCRF-CEM leukemia
  GI50: 3.52 µM
  TGI: > 100 µM
UACC-62 melanoma
  GI50: 2.15 µM
  TGI: > 100 µM
BT-549 breast
  GI50: 12.2 µM
  TGI: 95.4 µM
SR leukemia
  GI50: 1.66 µM
  TGI: > 100 µM
TK-10 renal
  GI50: 27.3 µM
  TGI: > 100 µM
MOLT-4 leukemia
  GI50: 4.62 µM
  TGI: > 100 µM
OVCAR-3 ovarian
  GI50: 2.51 µM
  TGI: 7.91 µM
OVCAR-4 ovarian
  GI50: 9.69 µM
  TGI: > 100 µM
SK-MEL-5 melanoma
  GI50: 4.53 µM
  TGI: > 100 µM
SNB-75 CNS
  GI50: 2.2 µM
  TGI: 62.7 µM
SK-MEL-28 melanoma
  GI50: 10 µM
  TGI: > 100 µM
SK-MEL-2 melanoma
  GI50: 3.94 µM
  TGI: > 100 µM
RXF 393 renal
  GI50: 2.6 µM
  TGI: > 100 µM
HCT-15 colon
  GI50: 2.12 µM
  TGI: > 100 µM
MDA-MB-231 breast
  GI50: 4.3 µM
  TGI: 65.7 µM
MALME-3M melanoma
  GI50: 5.41 µM
  TGI: > 100 µM
SK-OV-3 ovarian
  GI50: 4.63 µM
  TGI: > 100 µM
SW-620 colon
  GI50: 2.36 µM
  TGI: > 100 µM
HL-60(TB) leukemia
  GI50: 2.3 µM
  TGI: 7.16 µM
UO-31 renal
  GI50: 4.25 µM
  TGI: > 100 µM
MDA-MB-435
  GI50: 0.282 µM
  TGI: 0.976 µM
SNB-19 CNS
  GI50: 5.16 µM
  TGI: > 100 µM
HOP-62 NSCLC
  GI50: 7.49 µM
  TGI: > 100 µM
HOP-92 NSCLC
  GI50: > 100 µM
  TGI: > 100 µM
MCF7 breast
  GI50: 3.51 µM
  TGI: > 100 µM
HS 578T breast
  GI50: 2.37 µM
  TGI: > 100 µM
NCI/ADR-RES ovarian
  GI50: 2.89 µM
  TGI: > 100 µM
OVCAR-5 ovarian
  GI50: 4.42 µM
  TGI: > 100 µM
HCC-2998 colon
  GI50: 3.79 µM
  TGI: > 100 µM
A498 renal
  GI50: 0.293 µM
  TGI: 4.47 µM
SF-539 CNS
  GI50: 1.99 µM
  TGI: 6.11 µM
NCI-H23 lung
  GI50: 8.29 µM
  TGI: > 100 µM
SF-295 CNS
  GI50: 1.93 µM
  TGI: 20 µM
IGROV1 ovarian
  GI50: 5.25 µM
  TGI: > 100 µM
A549 NSCLC
  GI50: 3.85 µM
  TGI: > 100 µM
RPMI-8226 leukemia
  GI50: 4.14 µM
  TGI: > 100 µM
ACHN renal
  GI50: 6.19 µM
  TGI: > 100 µM
PC-3 prostate
  GI50: 2 µM
  TGI: > 100 µM
K-562 leukemia
  GI50: 0.706 µM
  TGI: > 100 µM
NCI-H522 lung
  GI50: 0.857 µM
  TGI: > 100 µM
UACC-257 melanoma
  GI50: 91.6 µM
  TGI: > 100 µM
HCT-116 colon
  GI50: 2.97 µM
  TGI: > 100 µM
KM12 colon
  GI50: 1.67 µM
  TGI: > 100 µM
SF-268 CNS
  GI50: 5.86 µM
  TGI: > 100 µM
NCI-H460 lung
  GI50: 3.39 µM
  TGI: > 100 µM
DU-145 prostate
  GI50: 4.23 µM
  TGI: > 100 µM
OVCAR-8 ovarian
  GI50: 7.25 µM
  TGI: > 100 µM
SN12C renal
  GI50: 5.4 µM
  TGI: > 100 µM
T-47D breast
  GI50: > 100 µM
  TGI: > 100 µM
NCI-H226 lung
  GI50: 8.13 µM
  TGI: > 100 µM
COLO 205 colon
  GI50: 2.1 µM
  TGI: 5.51 µM
786-0 renal
  GI50: 4.31 µM
  TGI: > 100 µM
HT29 colon
  GI50: 3.01 µM
  TGI: > 100 µM
